Assay results taken from ChEMBL document CHEMBL1201862, “PubChem BioAssay data set” (2004).
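These data come from cells grown in 96-well plates and exposed to compound for 48 hours at five concentrations. GI50 is the concentration that inhibits growth by half.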 Activity calls are given as the source filed them. No stated cut-off is given here; in the data, active = GI50 up to about 1.1 µM and inactive = higher.

Key:
Assay in all cases: inhibition of tumour cell growth, NCI panel, 48 h
[1] = tested on: XF498
[2] = tested on: KM-20L2
[3] = tested on: LXFL 529
[4] = tested on: RXF 631
[5] = tested on: SNB-78
[6] = tested on: DMS-273
[7] = tested on: DMS-114
[8] = tested on: M19-MEL
[9] = tested on: HOP-18

Measured: GI50

O=C1c2ccccc2C(=O)c2nc3ccc(Cl)cc3cc21
inactive: [1] > 100 µM | [2] > 100 µM | [3] > 100 µM | [4] > 100 µM | [5] > 100 µM | [6] > 100 µM | [7] > 100 µM | [8] > 100 µM

CCC(CC)n1c(C)nc2c1C(=O)c1ccccc1C2=O
inactive: [2] 39.4 µM | [3] 19.5 µM | [5] 49.7 µM | [6] 23.1 µM | [8] 14.9 µM

COc1ccc([C@H]2CC(=O)NCCCCN2)cc1
inactive: [9] > 100 µM | [1] > 100 µM | [2] > 100 µM | [3] > 100 µM | [5] > 100 µM | [6] > 100 µM | [7] > 100 µM | [8] > 100 µM

O=C1CCC(=O)c2c1c(O)c1ccncc1c2O
inactive: [9] 26.9 µM | [1] 18.4 µM | [2] 20.9 µM | [3] 16.6 µM | [4] 25.4 µM | [5] 23.7 µM | [6] 17.3 µM | [7] 12 µM | [8] 2.92 µM

CC(C)[C@H]1CO[C@@H]2O[C@H](C)CC(=O)N21
inactive: [9] > 100 µM | [2] > 100 µM | [3] > 100 µM | [7] > 100 µM | [8] > 100 µM

Cc1ccc(/N=N/c2ccc(N(CCC#N)CCC#N)cc2C)c(Br)c1
inactive: [9] 15.6 µM | [1] 9.08 µM | [3] 20 µM | [4] 4.35 µM | [5] 24.7 µM | [6] 10 µM | [7] 12.8 µM | [8] 25.4 µM

CC1COS(=O)O1 (stereo not given)
inactive: [9] > 100 µM | [1] > 100 µM | [2] > 100 µM | [5] > 100 µM | [6] > 100 µM | [7] > 100 µM | [8] > 100 µM

O=C1OC(=O)c2c1c(-c1ccccc1)cn2-c1ccc(Cl)cc1
inactive: [9] > 100 µM | [1] > 100 µM | [2] 22.1 µM | [3] 5.94 µM | [4] > 100 µM | [5] > 100 µM | [6] 8.77 µM | [7] 77.3 µM | [8] 21.1 µM

N/N=C(\Cc1ccccc1)NN=C(N)N
inactive: [9] > 100 µM | [1] > 100 µM | [3] > 100 µM | [4] > 100 µM | [5] > 100 µM | [8] > 100 µM

O=C(c1nc2ccc([N+](=O)[O-])cc2nc1O)C(O)c1ccc2c(c1)OCO2 (stereo not given)
inactive: [9] > 100 µM | [2] 47 µM | [3] 71.8 µM | [6] > 100 µM | [7] 29.5 µM | [8] > 100 µM

COc1nc(NC2OC(COC(C)=O)C(OC(C)=O)C(OC(C)=O)C2OC(C)=O)c(-c2csc(N)n2)c(=O)n1C (stereo not given)
inactive: [9] 39.4 µM | [2] > 100 µM | [3] 70 µM | [5] 62.2 µM | [7] 53.5 µM | [8] 36.5 µM

NC(=O)N/N=C(\CC1OC(=O)c2ccccc21)c1ccco1 (stereo not given)
inactive: [9] > 100 µM | [2] > 100 µM | [3] > 100 µM | [4] > 100 µM | [6] > 100 µM | [7] > 100 µM | [8] > 100 µM

N#C/C(=C\c1ccc2ccccc2c1)c1ccccc1
inactive: [9] 22.1 µM | [2] 15.6 µM | [3] 29.4 µM | [4] 30.5 µM | [5] 28.1 µM | [6] 14 µM | [8] 26.6 µM

CCCCCCCCCCCCNC(=S)OC
inactive: [9] 17 µM | [1] 16.6 µM | [2] 16.3 µM | [3] 14.8 µM | [5] 21.5 µM | [6] 15.4 µM | [7] 4.63 µM | [8] 17.9 µM

COC(=O)C(C(=O)C(=O)Nc1nc2ccc([N+](=O)[O-])cc2s1)c1nc2ccc(Cl)cc2nc1O (stereo not given)
inactive: [9] > 100 µM | [2] > 100 µM | [3] > 100 µM | [4] > 100 µM | [5] > 100 µM | [6] > 100 µM | [7] > 100 µM | [8] > 100 µM

COC(=O)C1=NC(=S)NC(c2ccccc2)C1c1nc2ccccc2o1 (stereo not given)
inactive: [9] > 50 µM | [1] > 50 µM | [2] > 50 µM | [3] > 50 µM | [5] > 50 µM | [7] > 50 µM | [8] > 50 µM

O=C(N/C(=C\c1ccc(Oc2ccc(Cl)c(Cl)c2)cc1)c1nc2ccccc2[nH]1)c1ccccc1
inactive: [1] 16.8 µM | [2] 17.7 µM | [3] 12.5 µM | [5] 20.4 µM | [6] 21.2 µM | [8] 27.6 µM

CN(C(=O)C12C3C4C1C1C2C3C41C(N)=O)C(C)(C)C (stereo not given)
inactive: [1] > 100 µM | [3] > 100 µM | [5] > 100 µM | [6] > 100 µM | [7] > 100 µM | [8] > 100 µM

Cc1ccc(NC(=O)CCC(CC(=O)C(C)(C)C)=NNC(=O)C(=O)NN)cc1C
inactive: [9] > 100 µM | [1] 64.4 µM | [2] > 100 µM | [3] > 100 µM | [6] > 100 µM | [8] > 100 µM

O=C(/C=C/c1ccc(Cl)c(Cl)c1)c1cccc2ccccc12
inactive: [9] 17.3 µM | [2] 5.22 µM | [3] 2.28 µM | [4] 17 µM | [5] 11.4 µM | [6] 4.05 µM | [7] 2.3 µM | [8] 11.7 µM

COc1ccc(/C=C/C(=O)c2sc(N)nc2C)cc1
inactive: [9] > 100 µM | [2] > 100 µM | [5] > 100 µM | [6] > 100 µM | [7] > 100 µM | [8] > 100 µM

O=C1C=CC(=O)c2c1cc1ccccc1c2O
inactive: [9] 18.2 µM | [1] 3.01 µM | [2] 19 µM | [3] 1.9 µM | [5] 3.78 µM | [6] 12.7 µM | [8] 4.01 µM

CCCCCCCCCCCCn1[nH]c(C)c(C(=S)SCCCCCCCC)c1=O
inactive: [9] 61.5 µM | [1] > 100 µM | [2] 36.8 µM | [3] 53.2 µM | [4] 75.7 µM | [5] > 100 µM | [6] 99.5 µM | [7] 26.7 µM | [8] 23.6 µM

COc1nc(C(Cl)(Cl)Cl)c(Cl)c(OC)c1Cl [PENCLOMEDINE]
inactive: [9] 36.1 µM | [1] 25.3 µM | [2] 47 µM | [4] 17.6 µM | [5] 37.1 µM | [6] 40.4 µM | [7] 25.4 µM | [8] 31.5 µM
